“Also recorded” adds a separate entry of the source. Bounds are passed on as bounds.

The subject of assay [1] is PDE activity in GH4C1 cells. The assay is described as follows: Effect of PDE inhibitors, forskolin and VIP on cAMP levels (Ca2+ influx through CNG channels). The conditions noted are these: for d(ΔF/F0)/dt: basal cAMP, inhibitor concentration (μM). It is filed as cell-based, rat. The protocol: To further test the utility of this approach, PDE activity in excitable GH4C1 pituitary cells was examined. In all of the experiments shown (See, FIGS. 13-14, and Table 2), 1 μM nimodipine was added at time zero to block Ca^2+ influx though voltage-gated Ca^2+ channels (triggered by membrane depolarization due to Ca^2+ and Na^+ influx through CNG channels). […] FIGS. 13 and 14 each depict experiments done on a single batch of cells. As before, similar results were obtained on three other batches. In the experiments that produced the data shown in Table 2, cAMP concentrations were monitored using Ca^2+ influx through C460W/E583M channels. […] Either 100 μM IBMX or vehicle (-IBMX; control) were added at time zero. Then, 50 μM forskolin were added at 180 seconds d(ΔF/F0)/dt, which is proportional to the Ca^2+ influx rate, was estimated as described in the Examples. Data are provided as mean±standard error. IBMX or vehicle was added at 60 seconds (first arrow in FIG. 13). Either 10 μM forskolin or 100 nM VIP were added at 240 seconds (second arrow in FIG. 13). In the absence of IBMX, large forskolin or VIP-induced increases in Ca^2+ influx were observed. […] This level of basal AC activity was quite different from that observed in HEK-293 cells (See, FIGS. 9 and 10). 1 μM nimodipine was added at time 0 to block endogenous voltage-gated Ca^2+ channels.
To identify the PDE family or families that regulate the local cAMP concentration in GH4C1 cells, cAMP accumulation was monitored in the presence and absence of PDE inhibitors (See, Table 2). Again, the high cAMP affinity C460W/E583M channels were used. PDE inhibitors were added at 60 s. Although the addition of IBMX alone triggered Ca^2+ influx, 10 μM forskolin were added at 240 s as a positive control for CNG channel activity. […] This PDE is likely to have a low Km for cAMP because it is capable of regulating cAMP at concentrations too low for the WT or Δ61-90/C460W/E583M channels to detect. Thus, it is contemplated that a Ca^2+-CaM stimulated PDE (type I) is primarily responsible for controlling basal cAMP signals in GH4C1 cells.
In addition, PDE activity was monitored using Δ61-90/C460W/E583M channels to detect changes in cAMP concentration (See, FIG. 14). PDE inhibitors and forskolin were added as described above. With this construct, it was not possible to observe changes in cAMP concentration due to inhibition of PDE activity alone. […] Inhibitors specific to other PDE types had no effect on the forskolin-induced Ca^2+ influx (data not shown). […] It is contemplated that Ca^2+ influx through the C460W/E583M channels was saturated at cAMP concentrations below the Km for this PDE. Thus, it is contemplated that there are two different PDE types that regulate local cAMP signals in GH4C1 cells: a low Km, 8-methoxymethyl-IBMX sensitive PDE (type I); and a high Km, RO-20-1724-, rolipram-sensitive PDE (type IV).
GH4C1 rat pituitary cells (ATCC) were maintained in 13 mL Ham's F-10 medium (Life Technologies) supplemented with 14.3 mM NaHCO3, 15% donor horse serum (Gemini), and 2.5% fetal bovine serum, pH 6.8, in 75 cm^2 flasks at 37° C. in a humidified atmosphere of 95% air and 5% CO2. Cells were split weekly (1:4) and washed with fresh medium twice weekly. Cells were plated at ˜60% confluence in 100 mm culture dishes twenty-four hours prior to infection with the CNG-channel-encoding adenovirus constructs (multiplicity of infection=50 plaque forming units per cell). Forty-eight hours post-infection cells were detached, resuspended in serum-containing medium, and assayed within 12 hours.
In this Example, experiments conducted to examine the response of excitable GH4C1 pituitary cells to stimulation by either forskolin or the hormone vasoactive intestinal peptide (VIP), in the presence of absence of PDE inhibitors are described. […]

Another assay relates to PDE IV. To be noted: cited from earlier work.
Another assay deals with PDE III. The conditions noted are these: cited from earlier work.
Another assay relates to PDE I. The conditions noted are these: cited from earlier work.
In a further assay the target is T1, PDE VII (UniProt Q9QXQ1).
T1 sequence (Q9QXQ1 1-446): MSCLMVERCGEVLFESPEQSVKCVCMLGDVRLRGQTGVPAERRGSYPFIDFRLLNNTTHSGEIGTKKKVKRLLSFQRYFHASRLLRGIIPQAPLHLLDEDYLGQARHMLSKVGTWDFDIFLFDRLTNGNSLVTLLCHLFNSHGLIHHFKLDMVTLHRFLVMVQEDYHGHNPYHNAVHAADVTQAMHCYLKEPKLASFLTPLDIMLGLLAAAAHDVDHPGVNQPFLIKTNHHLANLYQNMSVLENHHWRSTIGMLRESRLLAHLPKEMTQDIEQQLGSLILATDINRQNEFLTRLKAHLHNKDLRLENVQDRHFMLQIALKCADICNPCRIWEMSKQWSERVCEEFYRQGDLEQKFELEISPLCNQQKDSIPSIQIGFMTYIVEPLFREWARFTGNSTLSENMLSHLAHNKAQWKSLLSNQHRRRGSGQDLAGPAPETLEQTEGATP
The conditions noted are these: cited from earlier work.

In another assay the test system is PDE VI. To be noted: cited from earlier work.
Another assay concerns the target T2, PDE IX (UniProt O70628).
T2 sequence (O70628 1-534): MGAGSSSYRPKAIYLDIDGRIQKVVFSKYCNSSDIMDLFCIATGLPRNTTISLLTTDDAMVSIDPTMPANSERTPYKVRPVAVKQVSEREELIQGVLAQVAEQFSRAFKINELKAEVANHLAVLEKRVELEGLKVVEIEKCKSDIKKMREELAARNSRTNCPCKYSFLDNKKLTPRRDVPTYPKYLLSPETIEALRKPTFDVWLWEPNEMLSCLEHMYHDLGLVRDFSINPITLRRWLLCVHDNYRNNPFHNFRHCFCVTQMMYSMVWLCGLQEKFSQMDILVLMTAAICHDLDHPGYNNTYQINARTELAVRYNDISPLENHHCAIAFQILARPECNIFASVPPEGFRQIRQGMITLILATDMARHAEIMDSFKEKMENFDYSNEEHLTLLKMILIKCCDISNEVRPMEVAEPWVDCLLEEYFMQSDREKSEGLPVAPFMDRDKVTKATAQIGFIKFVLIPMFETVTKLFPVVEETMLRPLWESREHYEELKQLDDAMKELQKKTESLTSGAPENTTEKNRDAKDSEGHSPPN
The conditions noted are these: read-out: IC50, PDE IX; cited from earlier work.

Another assay has as its target T3, PDE VIII (Mus musculus, UniProt O88502).
T3 construct: host or cells: heterologously expressed
T3 sequence (O88502 1-823): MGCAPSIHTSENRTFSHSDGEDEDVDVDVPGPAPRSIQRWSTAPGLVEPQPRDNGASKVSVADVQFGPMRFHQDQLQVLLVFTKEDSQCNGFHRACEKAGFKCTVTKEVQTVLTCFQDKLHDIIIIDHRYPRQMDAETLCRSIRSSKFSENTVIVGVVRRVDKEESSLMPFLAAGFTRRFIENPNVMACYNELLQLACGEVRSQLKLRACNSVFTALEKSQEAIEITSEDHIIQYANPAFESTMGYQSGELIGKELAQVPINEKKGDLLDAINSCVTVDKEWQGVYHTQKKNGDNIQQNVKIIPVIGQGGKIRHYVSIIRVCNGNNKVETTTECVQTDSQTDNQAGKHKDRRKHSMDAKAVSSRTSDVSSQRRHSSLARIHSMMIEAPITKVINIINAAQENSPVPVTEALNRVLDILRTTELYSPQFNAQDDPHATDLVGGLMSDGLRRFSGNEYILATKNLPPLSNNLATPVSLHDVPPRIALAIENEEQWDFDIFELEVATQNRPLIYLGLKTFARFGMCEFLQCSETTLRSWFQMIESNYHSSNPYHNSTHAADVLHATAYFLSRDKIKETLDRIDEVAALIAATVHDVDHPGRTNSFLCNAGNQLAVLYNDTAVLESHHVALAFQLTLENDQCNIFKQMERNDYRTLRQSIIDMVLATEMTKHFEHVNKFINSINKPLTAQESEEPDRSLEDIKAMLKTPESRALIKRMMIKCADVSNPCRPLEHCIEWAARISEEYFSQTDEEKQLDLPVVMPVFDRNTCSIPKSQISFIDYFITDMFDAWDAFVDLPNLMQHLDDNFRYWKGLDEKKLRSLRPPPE
The conditions noted are these: cited from earlier work.

On to `COCc1nc2c([nH]1)c(=O)n(C)c(=O)n2CC(C)C` [8-methoxymethyl-IBMX], for which the “Ca2+ influx induced by the PDE inhibitor alone (basal cAMP)” value in assay [1] (C460W/E583M channels, no AC stimulation) is recorded as “induced Ca^2+ influx through CNG channels”. Besides, the “d(ΔF/F0)/dt” value in assay [1] (C460W/E583M channels) was 0.0025 ± 0.0009 s⁻¹. Besides, the “effect on forskolin-induced Ca2+ influx / PDE activity” value in assay [1] (Δ61-90/C460W/E583M channels, 10 μM forskolin) is “significantly inhibited PDE activity; also recorded: increase forskolin-induced Ca^2+ influx through CNG channels”. In addition, the half-inhibitory concentration (IC50) is greater than 100 µM in the assay with PDE IV, 69 µM with PDE III and 2 to 8 µM with PDE I.
For the compound `CCCOc1ccccc1-c1nc2nn[nH]c2c(=O)[nH]1` [Zaprinast], the “d(ΔF/F0)/dt” value in assay [1] (C460W/E583M channels) was 0 s⁻¹. The IC50 at PDE VII is greater than 50 µM; in the assay on PDE VI it was 0.15 µM; in the assay with PDE III, 10 µM; at PDE IX, 29 to 35 µM; at PDE VIII, greater than 100 µM; in the assay with PDE I, 3 to 10 µM.

A word on the IC50: it is the point on the concentration scale where inhibition reaches its midpoint.
